These results are taken from ChEMBL document CHEMBL1201862, “PubChem BioAssay data set” (2004).

Among the test systems are HT-29; UACC-62; NCI-H226; A549; NCI-H522; SNB-75; RPMI-8226; BT-549; NCI-H460; IGROV-1; NCI-H23; A498; CAKI-1; HCT-15; M14; CCRF-CEM; SK-MEL-28; 786-0; MOLT-4; NCI/ADR-RES.
What all share (experiment): NCI-60 cell line screen, 48 h

SMILES strings stand for the structures.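 Briefly, cells in 96-well plates were exposed to five compound concentrations for 48 h, and endpoints were estimated by linear interpolation. The concentration for 50% growth inhibition is given as GI50.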 Calls of active or inactive are those of the source. Cut-off read from the data, not from the text of the source: active = GI50 up to about 1.1 µM and inactive = higher. Where only a bound is given, the exact number is not on record here.

As to `CC(=O)Nc1ccccc1C=C1c2ccccc2-c2ccccc21`, the GI50 in the assay on HT-29 was > 100 µM (inactive); in the assay on UACC-62, 41.7 µM (inactive); in the assay with NCI-H226 it was 28 µM (inactive); with A549 it was 24.1 µM (inactive); with NCI-H522 it was 20.2 µM (inactive); in the assay with SNB-75, 17.9 µM (inactive). The GI50 in the assay with RPMI-8226 is 50.2 µM (inactive); in the assay with BT-549, 24.8 µM (inactive); with NCI-H460, 34.7 µM (inactive); in the assay on IGROV-1, 33 µM (inactive); with NCI-H23, 25.2 µM (inactive); in the assay with A498, 36.3 µM (inactive). For the same compound, the GI50 with CAKI-1 is 63 µM (inactive); in the assay on HCT-15, 45.8 µM; in the assay with M14, 36.7 µM (inactive); in the assay on CCRF-CEM, 48 µM (inactive); in the assay on SK-MEL-28, > 100 µM (inactive); in the assay on 786-0, 19.9 µM (inactive). Also, the GI50 was 77.1 µM (inactive) in the assay with MOLT-4 and 18.7 µM (inactive) in the assay on NCI/ADR-RES.
As to `COc1ccc(C[C@@H]2OC3(C=CC(=O)C=C3)O[C@H]2Cc2ccc(OC)cc2)cc1`, the GI50 in the assay on HT-29 was 0.766 µM (active); with UACC-62 it was 1.72 µM (inactive); in the assay on NCI-H226, 0.232 µM (active); in the assay with A549 it was 3.1 µM (inactive); in the assay with NCI-H522, 0.147 µM (active); in the assay on SNB-75, 1.68 µM (inactive). The GI50 in the assay with RPMI-8226 was 0.202 µM (active); in the assay on BT-549, 0.221 µM (active); in the assay on NCI-H460, 7.14 µM (inactive); with IGROV-1, 0.317 µM (active); in the assay with NCI-H23, 1.37 µM (inactive); in the assay on A498 it was 5.53 µM (inactive). In addition, the GI50 is 0.354 µM (active) in the assay on CAKI-1; 0.255 µM with HCT-15; 0.889 µM (active) in the assay with M14; 0.14 µM (active) with CCRF-CEM; 1.71 µM (inactive) with SK-MEL-28; 0.184 µM (active) in the assay with 786-0. Moreover, the GI50 was 0.173 µM (active) with MOLT-4 and 0.822 µM (active) in the assay with NCI/ADR-RES.
As for `CCOC(=O)c1ccc(/N=C/C=C(\Nc2ccc(C(=O)OCC)cc2)c2ccc3ccccc3c2)cc1`, the GI50 was 18.4 µM (inactive) in the assay with HT-29; 14 µM (inactive) with UACC-62; 34 µM (inactive) with NCI-H226; 34.5 µM (inactive) in the assay with A549; 27.5 µM (inactive) with NCI-H522; 28 µM (inactive) in the assay on SNB-75. Besides, the GI50 with RPMI-8226 is 18.7 µM (inactive); in the assay on BT-549, 17 µM (inactive); in the assay with NCI-H460, 25.8 µM (inactive); with IGROV-1, 36.2 µM (inactive); in the assay on NCI-H23, 21 µM (inactive); with A498 it was 95.9 µM (inactive). In addition, the GI50 is 25 µM (inactive) in the assay with CAKI-1; 20.7 µM in the assay on HCT-15; 23.7 µM (inactive) in the assay on M14; 17.9 µM (inactive) in the assay with CCRF-CEM; 23.5 µM (inactive) in the assay with SK-MEL-28; 23.3 µM (inactive) in the assay on 786-0. Moreover, the GI50 is 3.97 µM (inactive) with MOLT-4 and 21.5 µM (inactive) with NCI/ADR-RES.
`COc1ccc([N+](=O)[O-])c2c(NCCCN(C)C)c3ccccc3nc12`: the GI50 was 0.07 µM (active) in the assay on HT-29; 0.127 µM (active) in the assay on UACC-62; 0.225 µM (active) in the assay with NCI-H226; 0.0843 µM (active) in the assay on A549; 0.0286 µM (active) in the assay on NCI-H522; 0.222 µM (active) in the assay with SNB-75. Besides, the GI50 in the assay on RPMI-8226 was 0.218 µM (active); in the assay with BT-549, 0.701 µM (active); in the assay with NCI-H460, 0.0355 µM (active); with IGROV-1, 0.05 µM (active); in the assay on NCI-H23 it was 0.0625 µM (active); with A498, 0.0204 µM (active). In addition, the GI50 in the assay with CAKI-1 was 0.333 µM (active); with HCT-15, 0.0935 µM; with M14, 0.183 µM (active); in the assay on CCRF-CEM it was 0.546 µM (active); in the assay with SK-MEL-28 it was 3 µM (inactive); in the assay with 786-0, 0.0778 µM (active). Moreover, the GI50 is 0.0326 µM (active) in the assay with MOLT-4 and 2.87 µM (inactive) with NCI/ADR-RES.
Consider `O=C1Oc2ccccc2C(=O)/C1=C/N1C(=O)/C(=C/c2ccc([N+](=O)[O-])cc2)SC1=S`, for which the GI50 is 32.6 µM (inactive) in the assay with HT-29; 17.9 µM (inactive) with UACC-62; 15.1 µM (inactive) in the assay on NCI-H226; 26.7 µM (inactive) in the assay on A549; 20.7 µM (inactive) with NCI-H522; 16.6 µM (inactive) in the assay on SNB-75. Besides, the GI50 was 5.65 µM (inactive) with RPMI-8226; 7.16 µM (inactive) with BT-549; 18.5 µM (inactive) with NCI-H460; 32.3 µM (inactive) with IGROV-1; 14 µM (inactive) in the assay on NCI-H23; 7.91 µM (inactive) with A498. For the same compound, the GI50 with CAKI-1 was 24.5 µM (inactive); in the assay with HCT-15, 19.1 µM; in the assay with M14, 22.8 µM (inactive); in the assay with CCRF-CEM, 34 µM (inactive); in the assay on SK-MEL-28, 22.7 µM (inactive); in the assay on 786-0, 30.5 µM (inactive). The GI50 with MOLT-4 is 29.8 µM (inactive); with NCI/ADR-RES, 23.7 µM (inactive).
For `O=c1c2c3c(sc2nc2n1N=CN(c1ccccc1)C2)CCCC3`, the GI50 in the assay with HT-29, in the assay with UACC-62, with NCI-H226, with A549, with NCI-H522 and in the assay on SNB-75 was > 100 µM (inactive) throughout. The GI50 in the assay with RPMI-8226, with BT-549, in the assay with NCI-H460, in the assay with IGROV-1, with NCI-H23 and with A498 was > 100 µM (inactive) in each case. The GI50 is > 100 µM (inactive) in the assay with CAKI-1; above 100 µM in the assay on HCT-15; > 100 µM (inactive) in the assay with M14; > 100 µM (inactive) with CCRF-CEM; > 100 µM (inactive) with SK-MEL-28; > 100 µM (inactive) with 786-0. Moreover, the GI50 in the assay on MOLT-4 and with NCI/ADR-RES was > 100 µM (inactive) in each case.
In the case of `Oc1nc(S)nc(SCc2c(Cl)c(Cl)c(Cl)c(Cl)c2Cl)n1`, the GI50 with HT-29 is 28.1 µM (inactive); in the assay on UACC-62, > 92.7 µM (inactive); in the assay with NCI-H226, > 69.8 µM (inactive); with A549 it was > 96.4 µM (inactive); in the assay with NCI-H522, 18.2 µM (inactive); in the assay with SNB-75, > 100 µM (inactive). Moreover, the GI50 was 7.18 µM (inactive) with RPMI-8226; > 80.2 µM (inactive) in the assay on BT-549; 58.2 µM (inactive) with NCI-H460; 69 µM (inactive) with IGROV-1; 55.7 µM (inactive) in the assay on NCI-H23; > 59.4 µM (inactive) in the assay with A498. The GI50 in the assay on CAKI-1 was 30.6 µM (inactive); with HCT-15, 49 µM; with M14, 60.8 µM (inactive); with CCRF-CEM, 15.8 µM (inactive); in the assay on SK-MEL-28, 31.1 µM (inactive); with 786-0, 42.7 µM (inactive). In addition, the GI50 in the assay on MOLT-4 was 0.809 µM (active); in the assay on NCI/ADR-RES, > 58.5 µM (inactive).
